Experimental data published in patent US5096929A, “2-amino-1,2,3,4-tetrahydronaphthalene derivatives with cardiovascular activity, process for their preparation and pharmaceutical compositions containing them” (Chiesi Farmaceutici S.p.A., priority 1989, dated 1992).
Counter-ions that a name gives are not always drawn.

Tested on: catecholamines release
Experiment: Mechanism of cardiostimulant action: catecholamines release
Settings: mechanism study
Excerpt: The mechanism of the inotropic activity of CHF 1255 has been studied in a series of other tests.
Studies have excluded the possibility that the cardiostimulant action of the compound is due to catecholamines release, to the stimulation of alpha-adrenergic cardiac receptors, or to the stimulation of histaminergic H1 and H2 receptors.

COc1ccc2c(c1OC)CCC(N[C@@H](C)[C@H](O)c1ccc(O)cc1)C2 (relative stereo) [CHF 1255, Erythro-5,6-Dimethoxy-2-[2-(4-hydroxyphenyl)-2-hydroxy-1-mehylethylamino]1,2,3,4-tetrahydronaphthalene hydrochloride]
Contribution of catecholamines release to cardiostimulant action: excluded
